What was measured:
[1] = biological target: T1, Protein deacetylase HDAC6 (Homo sapiens, UniProt Q9UBN7)
T1 sequence (Q9UBN7 whole entry): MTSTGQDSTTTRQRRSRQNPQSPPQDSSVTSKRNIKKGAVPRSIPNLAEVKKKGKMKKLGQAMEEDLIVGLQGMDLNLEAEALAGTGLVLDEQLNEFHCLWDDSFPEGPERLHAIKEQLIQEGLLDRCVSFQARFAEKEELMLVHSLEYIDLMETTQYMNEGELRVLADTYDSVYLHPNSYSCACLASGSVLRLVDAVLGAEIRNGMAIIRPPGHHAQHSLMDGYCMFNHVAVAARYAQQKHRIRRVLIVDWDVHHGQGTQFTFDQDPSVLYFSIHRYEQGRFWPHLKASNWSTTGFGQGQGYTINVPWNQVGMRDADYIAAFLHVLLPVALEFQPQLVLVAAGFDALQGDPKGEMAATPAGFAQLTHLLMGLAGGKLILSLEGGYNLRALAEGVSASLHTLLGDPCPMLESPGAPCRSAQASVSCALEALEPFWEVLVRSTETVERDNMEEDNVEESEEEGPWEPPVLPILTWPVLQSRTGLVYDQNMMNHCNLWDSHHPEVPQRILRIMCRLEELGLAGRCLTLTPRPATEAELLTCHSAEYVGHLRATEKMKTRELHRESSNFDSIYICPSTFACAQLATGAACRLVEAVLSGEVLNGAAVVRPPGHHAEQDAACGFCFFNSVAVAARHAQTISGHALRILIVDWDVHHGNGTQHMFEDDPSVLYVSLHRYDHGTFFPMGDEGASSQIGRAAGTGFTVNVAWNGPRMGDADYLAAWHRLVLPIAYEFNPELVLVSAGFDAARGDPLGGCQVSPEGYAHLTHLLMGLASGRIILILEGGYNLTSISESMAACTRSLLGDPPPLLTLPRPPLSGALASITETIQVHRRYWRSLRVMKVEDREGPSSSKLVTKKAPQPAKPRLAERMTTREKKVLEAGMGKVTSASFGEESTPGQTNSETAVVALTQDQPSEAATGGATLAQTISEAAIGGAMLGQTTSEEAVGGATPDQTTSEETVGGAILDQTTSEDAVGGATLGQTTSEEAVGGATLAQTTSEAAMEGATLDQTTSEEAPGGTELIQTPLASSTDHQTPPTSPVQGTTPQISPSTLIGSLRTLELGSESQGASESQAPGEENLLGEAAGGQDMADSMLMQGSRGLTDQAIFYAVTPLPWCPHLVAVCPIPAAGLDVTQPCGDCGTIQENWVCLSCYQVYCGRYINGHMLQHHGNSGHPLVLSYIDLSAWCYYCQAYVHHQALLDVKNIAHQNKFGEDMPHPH

Histone deacetylase 1 = Histone deacetylase 1 (Homo sapiens, UniProt Q13547)
Chain of Histone deacetylase 1 (Q13547 whole entry): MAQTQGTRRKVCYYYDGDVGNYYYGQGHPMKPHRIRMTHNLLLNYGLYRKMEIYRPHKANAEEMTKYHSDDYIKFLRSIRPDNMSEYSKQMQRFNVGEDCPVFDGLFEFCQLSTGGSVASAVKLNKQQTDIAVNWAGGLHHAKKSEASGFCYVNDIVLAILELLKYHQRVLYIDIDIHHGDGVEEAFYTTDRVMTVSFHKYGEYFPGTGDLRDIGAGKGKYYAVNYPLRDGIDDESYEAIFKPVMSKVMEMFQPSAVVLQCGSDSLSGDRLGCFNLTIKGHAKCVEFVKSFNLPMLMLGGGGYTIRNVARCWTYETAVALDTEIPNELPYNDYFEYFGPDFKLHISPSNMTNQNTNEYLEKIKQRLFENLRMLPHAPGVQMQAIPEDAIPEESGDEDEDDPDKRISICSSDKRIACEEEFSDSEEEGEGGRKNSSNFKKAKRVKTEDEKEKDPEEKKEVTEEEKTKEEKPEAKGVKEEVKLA

SMILES | IC50 [1] | IC50 (Histone deacetylase 1)
CCCCN(Cc1ccc(C(=O)NO)cc1)C(=O)Nc1cccc(N(C)C)c1 | 6.12 nM | 604 nM
O=C(NCc1ccc(C(=O)NO)cc1)Nc1ccc(CO)cc1 | 8.3 nM | 1060 nM
